Assay results taken from patent publication US20110082133A1, “PYRIDONE COMPOUNDS” (priority 2008, published 2011).
pKi: −log10 of the molar value.

The molecules below were run against rat EP4 receptor (Rattus norvegicus, UniProt P43114) (assay: Evaluation test on EP4 receptor affinity in rat ([3H]PGE2 receptor binding test, membrane fraction)). Details: [3H]PGE2 0.3 nM, membrane fraction of rat EP4 expressing HEK293 cells.
Sequence of rat EP4 receptor (P43114 whole entry): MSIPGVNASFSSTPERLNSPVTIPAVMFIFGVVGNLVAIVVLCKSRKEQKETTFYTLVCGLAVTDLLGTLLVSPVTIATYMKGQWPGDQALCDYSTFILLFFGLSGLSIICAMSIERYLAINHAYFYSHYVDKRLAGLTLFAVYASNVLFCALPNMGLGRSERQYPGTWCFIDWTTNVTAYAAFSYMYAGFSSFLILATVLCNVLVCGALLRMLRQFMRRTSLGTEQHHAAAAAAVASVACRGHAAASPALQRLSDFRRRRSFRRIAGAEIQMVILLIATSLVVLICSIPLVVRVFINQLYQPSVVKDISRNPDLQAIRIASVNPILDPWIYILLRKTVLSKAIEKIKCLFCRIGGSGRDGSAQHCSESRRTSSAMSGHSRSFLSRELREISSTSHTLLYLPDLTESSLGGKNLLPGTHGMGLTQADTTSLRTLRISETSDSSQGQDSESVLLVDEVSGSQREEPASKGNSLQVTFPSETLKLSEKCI
Set-up: expressed in transfected cells; host or cells: HEK293 cells, transient transfection (Lipofectamine 2000); membrane fraction used
Protocol: A rat EP4 receptor cDNA was subcloned into an expression vector (pcDNA3.1-V5-His-topo, manufactured by Invitrogen Corporation) to prepare a rat EP4 expression vector. HEK293 cells were cultured in a collagen type I-treated 15 cm dish (manufactured by Asahi Techno Glass Co. Ltd.) to a confluence of 70%. An Opti-MEM culture medium at 1.2 mL/dish and a transfection reagent (Lipofectamine 2000, manufactured by Invitrogen Corporation) at 60 μL/dish were mixed, followed by being left to stand at room temperature for 5 minutes. Then, the rat EP4 receptor expression vector at 15 μg/dish was added thereto, followed by being left to stand at room temperature for 30 minutes. The liquid mixture of the transfection reagent was added into the dish, followed by culturing for 20 to 24 hours. The cell culture was carried out in a CO2 incubator (37° C., 5% CO2).
The culture medium was removed by suction, 10 mL of cooled PBS was added thereto per 15 cm dish, and the cells were scraped using a cell scraper. After washed with cooled PBS (1,200 rpm, 4° C., 5 minutes), suspended in 6 mL/dish of cooled 20 mM Tris-HCl (pH 7.4; manufactured by Nacalai Tesque Inc., 5 mM EDTA included) and homogenized using a Polytron, the homogenate was centrifuged (26,000 rpm, 20 minutes, 4° C.). The obtained precipitate was resuspended in cooled 20 mM Tris-HCl and homogenized again using a Polytron, and the homogenate was centrifuged (26,000 rpm, 20 minutes, 4° C.). The obtained precipitate was resuspended in 50 mM HEPES (pH 7.5; manufactured by Dojindo Laboratories) at 1 mL per dish, homogenized using a Polytron, and freeze-stored at −80° C. as a membrane fraction. At this time, a part thereof was used for the measurement of the protein concentration. Measurement of the protein concentration was carried out using a Protein assay stain (manufactured by Bio-Rad Laboratories) in accordance with a standard Protocol as appended in duplicate.
[^3H]PGE2 50 μL (final concentration 0.3 nM; manufactured by Perkin Elmer Co., Ltd.), 100 μL (20 μg/well) of the membrane fraction prepared from the rat EP4 expression cell, and 50 μL of a test compound were mixed in a 96-well microplate (manufactured by Sumitomo Bakelite Co., Ltd.), incubated at room temperature for 1 hour, then filtered by suction on a microplate (UniFilter-96 GF/B, manufactured by Perkin Elmer Co., Ltd.) using a cell harvester (FilterMate Harvester, manufactured by Perkin Elmer Co., Ltd.), and washed three times with 300 μL/well of a cooled assay buffer (50 mM HEPES, 10 mM MgCl2). Dilution of [^3H]PGE2 and the membrane fraction was carried out using the assay buffer, and dilution of the test compound and the unlabeled PGE2 was carried out using dimethyl sulfoxide and the assay buffer. The UniFilter-96 GF/B was treated by preliminarily washing twice with 200 μL/well of the cooled assay buffer. The UniFilter-96 GF/B after filtration was dried in a dryer overnight, 50 μL/well of a liquid scintillation cocktail (MicroScint20, manufactured by Perkin Elmer Co., Ltd.) was added thereto, and the radioactivity was then measured using a liquid scintillation counter for a microplate (TopCount, manufactured by Perkin Elmer Co., Ltd.). For measurement of the non-specific binding, an unlabeled PGE2 (final concentration 1 μM; manufactured by Cayman Chemical Company) was added. All of the measurements were carried out in duplicate, and the specific binding amount was determined by subtracting the non-specific binding amount from the total binding amount.
According to the test method as described above, the rat EP4 receptor affinity (Ki) of the compound of the formula (I) was measured. […] In this connection, Ex means Example Compound number.
For `CC(C)C[C@H]1CCCN1Cc1c(Cl)cc(Cl)c(=O)n1CCc1ccc(C(=O)O)cc1` [Ex 18], the pKi was 8.36. `CN(Cc1c(Cl)cc(Cl)c(=O)n1CCc1ccc(C(=O)O)cc1)c1cccc(OC(F)(F)F)c1` [Ex 19] was tested, and the pKi was 8.27. Molecule `CC(C)c1cccc(N(C)Cc2c(Cl)cc(Cl)c(=O)n2CCc2ccc(C(=O)O)cc2)c1` [Example 5, 4-{2-[3,5-dichloro-6-{[(3-isopropylphenyl)(methyl)amino]methyl}-2-oxopyridin-1(2H)-yl]ethyl}benzoic acid] has a pKi of 8.33. Molecule `Cc1cccc(N(C)Cc2c(Cl)cc(Cl)c(=O)n2CCc2ccc(C(=O)O)cc2)c1` [Example 6, 4-{2-[3,5-dichloro-6-{[methyl(3-methylphenyl)amino]methyl}-2-oxopyridin-1(2H)-yl]ethyl}benzoic acid] has a pKi of 7.96. For `CCc1ccc2c(c1)N(Cc1c(Cl)cc(Cl)c(=O)n1CCc1ccc(C(=O)O)cc1)CC2` [Example 15, 4-(2-{3,5-dichloro-6-[(6-ethyl-2,3-dihydro-1H-indol-1-yl)methyl]-2-oxopyridin-1(2H)-yl}ethyl)benzoic acid], the pKi was 8.44. Molecule `O=C(O)c1ccc(CCn2c(CN3CCc4ccccc43)c(Cl)cc(Cl)c2=O)cc1` [Example 16, 4-{2-[3,5-dichloro-6-(2,3-dihydro-1H-indol-1-ylmethyl)-2-oxopyridin-1(2H)-yl]ethyl}benzoic acid] has a pKi of 7.89. In the case of `CC(C)c1cccc(NCc2c(Cl)cc(Cl)c(=O)n2CCc2ccc(C(=O)O)cc2)c1` [Example 91], the pKi was 8.01. `CCc1cccc(NCc2c(Cl)cc(Cl)c(=O)n2CCc2ccc(C(=O)O)cc2)c1` [Example 97] gave a pKi of 7.96. `O=C(O)c1ccc(CCn2c(CNc3cccc(C(F)(F)F)c3)c(Cl)cc(Cl)c2=O)cc1` [Example 99] gave a pKi of 7.60. `CN(Cc1c(Cl)cc(Cl)c(=O)n1CCc1ccc(C(=O)O)cc1)c1cccc(F)c1` [Example 122] was tested, and the pKi was 7.80. For `CCN(Cc1c(Cl)cc(Cl)c(=O)n1CCc1ccc(C(=O)O)cc1)c1cccc(C(C)C)c1` [Example 123], the pKi was 7.68. In the case of `COc1cccc(N(C)Cc2c(Cl)cc(Cl)c(=O)n2CCc2ccc(C(=O)O)cc2)c1` [Example 124], the pKi was 8.21. For `COc1cc(OC)cc(N(C)Cc2c(Cl)cc(Cl)c(=O)n2CCc2ccc(C(=O)O)cc2)c1` [Example 125], the pKi was 7.54. `COc1ccc2c(c1)N(Cc1c(Cl)cc(Cl)c(=O)n1CCc1ccc(C(=O)O)cc1)CC2` [Example 130] was tested, and the pKi was 8.39. Molecule `Cc1ccc2c(c1)N(Cc1c(Cl)cc(Cl)c(=O)n1CCc1ccc(C(=O)O)cc1)CC2` [Example 138] has a pKi of 8.11. `Cc1cccc2c1N(Cc1c(Cl)cc(Cl)c(=O)n1CCc1ccc(C(=O)O)cc1)CC2` [Example 139] showed a pKi of 7.92. Molecule `CC(C)c1ccc2c(c1)N(Cc1c(Cl)cc(Cl)c(=O)n1CCc1ccc(C(=O)O)cc1)CC2` [Example 143] has a pKi of 7.96. `Cc1ccc2c(c1)CCCN2Cc1c(Cl)cc(Cl)c(=O)n1CCc1ccc(C(=O)O)cc1` [Example 145] showed a pKi of 7.72. With `COc1cccc2c1N(Cc1c(Cl)cc(Cl)c(=O)n1CCc1ccc(C(=O)O)cc1)CC2` [Example 146] the pKi was 7.41. `O=C(O)c1ccc(CCn2c(CN3CCc4ccc(Cl)cc43)c(Cl)cc(Cl)c2=O)cc1` [Example 150] was tested, and the pKi was 7.82. `O=C(O)c1ccc(CCn2c(CN3CCc4ccc(OC(F)(F)F)cc43)c(Cl)cc(Cl)c2=O)cc1` [Example 152] gave a pKi of 8.29. `O=C(O)c1ccc(CCn2c(CN3CCc4ccc(C(F)(F)F)cc43)c(Cl)cc(Cl)c2=O)cc1` [Example 153] gave a pKi of 8.31. Molecule `CCCC[C@H]1CCCN1Cc1c(Cl)cc(Cl)c(=O)n1CCc1ccc(C(=O)O)cc1` [Example 158] has a pKi of 8.07.
